Data: US4177269A, “Novel 17-esters of 17α-hydroxy gestogens, compositions containing such compounds, processes for their preparation and methods of treatment therewith” (Aktiebolaget Leo, priority 1976, dated 1979)

How the values were obtained:
[1] = system: Ehrlich ascites tumour, ELD hyperdiploid; assay: Ehrlich ascites tumour, ELD hyperdiploid (46 chromosomes), growth inhibition in mice; format: in vivo, SPF NMRI mice; settings: one i.p. injection, result in words
Source text: (§1) The experimental design and the interpretation of the results are in accordance with the standards set by the CCNSC (Cancer Chemotherpy Reports, January 1959 and December 1962).
Ehrlich ascites tumour, ELD hyperdiploid
Experimental animals: SPF NMRI mice.
Tumour implant: 2 × 10^6 tumour cells i.p.
(§2) Therapy: One injection i.p. on the day following implanta-
(§3) Termination: The animals are killed on the 8th day.
Evaluation: Weight of tumours of test animals compared with
those of control animals.

[2] = system: Walker carcinosarcoma 256; assay: Walker carcinosarcoma 256 tumour growth inhibition in rats; format: in vivo, Sprague-Dawley rats; settings: daily p.o. for 5 days, result in words
Source text: (§4) LD50 is the dose that causes a 50 percent lethality of the animals, and ED50 is the dose that causes a 50 percent reduction of tumour size.
as §1
Walker carcinosarcoma 256.
(§5) Experimental animals: Sprague-Dawley rats.
Tumour implant: Tumour pieces with 2-4 mm diameter, sub-
Therapy: Daily p.o. administration for 5 days starting on
the day following implantation.
Termination: The animals are killed on the 9th day.
(§6) Evaluation: Weights of tumours of test animals are compared
(§7) with those of control animals.

[3] = system: Hepatome AH 130; assay: Hepatome AH 130 tumour growth inhibition in rats; format: in vivo, Sprague-Dawley rats; settings: one i.p. injection, result in words
Source text: as §4, §1, §5
Tumour implant: 5 × 10^6 tumour cells i.p.
as §2, §3, §6, §7

Row | SMILES | antitumour activity [1] | antitumour activity [2] | antitumour activity [3]
1 | CC(=O)[C@@]1(OC(=O)COC(=O)c2cccc(N(CCCl)CCCl)c2)CC[C@H]2[C@@H]3CCC4=CC(=O)CC[C@]4(C)[C@H]3CC[C@@]21C [3:6, 17α-/3-(N,N-bis(2-chloroethyl)amino)benzoyloxyacetoxy/pregn-4-ene-3,20-dione] | exhibit antitumour activity | exhibit antitumour activity | exhibit antitumour activity
2 | CC(=O)[C@@]1(OC(=O)COC(=O)CCCc2ccc(N(CCCl)CCCl)cc2)CC[C@H]2[C@@H]3C=C(Cl)C4=CC(=O)[C@@H]5C[C@@H]5[C@]4(C)[C@H]3CC[C@@]21C [3:11, 6-chloro-17α-[4-(4-(N,N-bis(2-chloroethyl)amino)phenyl)butanoyloxyacetoxy]-1α,2α-methylenepregna-4,6-diene-3,20-dione] | exhibit antitumour activity | exhibit antitumour activity | –
3 | CC(=O)[C@@]1(OC(=O)COC(=O)[C@@H](N)Cc2ccc(N(CCCl)CCCl)cc2)CC[C@H]2[C@@H]3CCC4=CC(=O)CC[C@]4(C)[C@H]3CC[C@@]21C [3:12, 17-[(2S)-2-amino-3-(4-(N,N-bis(2-chloroethyl)amino)phenyl)propanoyloxyacetoxy]pregn-4-ene-3,20-dione] | exhibit antitumour activity | exhibit antitumour activity | –
4 | CC(=O)N[C@@H](Cc1ccc(N(CCCl)CCCl)cc1)C(=O)OCC(=O)O[C@]1(C(C)=O)CC[C@H]2[C@@H]3CCC4=CC(=O)CC[C@]4(C)[C@H]3CC[C@@]21C [3:14, 17-[(2S)-2-acetamido-3-(4-(N,N-bis(2-chloroethyl)amino)phenyl)propanoyloxyacetoxy]pregn-4-ene-3,20-dione] | exhibit antitumour activity | exhibit antitumour activity | –
5 | CC(=O)[C@@]1(OC(=O)COC(=O)CCCc2ccc(N(CCCl)CCCl)cc2)CC[C@H]2[C@@H]3C[C@H](C)C4=CC(=O)CC[C@]4(C)[C@H]3CC[C@@]21C [3:16, 17α-[4-(4-(N,N-bis(2-chloroethyl)amino)phenyl)butanoyloxyacetoxy]-6α-methylpregn-4-ene-3,20-dione] | exhibit antitumour activity | exhibit antitumour activity | –
6 | CC(=O)[C@@]1(OC(=O)COC(=O)c2ccc(C)c(N(CCCl)CCCl)c2)CC[C@H]2[C@@H]3C=C(Cl)C4=CC(=O)CC[C@]4(C)[C@H]3CC[C@@]21C [3:18, 6-chloro-17α-[3-(N,N-bis(2-chloroethyl)amino)-4-methylbenzoyloxyacetoxy]pregna-4,6-diene-3,20-dione] | – | exhibit antitumour activity | –
7 | CC(=O)[C@@]1(OC(=O)CCCOC(=O)CCCc2ccc(N(CCCl)CCCl)cc2)CC[C@H]2[C@@H]3C[C@H](C)C4=CC(=O)CC[C@]4(C)[C@H]3CC[C@@]21C [3:21, 17α-[4-(4-(4-(N,N-bis(2-chloroethyl)amino)phenyl)butanoyloxy)butanoyloxy]-6α-methylpregn-4-ene-3,20-dione] | – | exhibit antitumour activity | –
8 | CC(=O)[C@@]1(OC(=O)CCCNC(=O)Cc2ccc(N(CCCl)CCCl)cc2)CC[C@H]2[C@@H]3CCC4=CC(=O)CC[C@]4(C)[C@H]3CC[C@@]21C [6:1, 17α-/4-(4-(N,N-bis(2-chloroethyl)amino)phenylacetylamino)butanoyloxy/pregn-4-ene-3,20-dione] | exhibit antitumour activity | exhibit antitumour activity | –
9 | CC(=O)[C@@]1(OC(=O)CCCNC(=O)c2ccc(C)c(N(CCCl)CCCl)c2)CC[C@H]2[C@@H]3CCC4=CC(=O)CC[C@]4(C)[C@H]3CC[C@@]21C [6:4] | exhibit antitumour activity | – | exhibit antitumour activity
